# Measurements: patent publication US20100137313A1 (ASTRAZENECA AB, priority 2008, published 2010)
# Molecular target: S. pneumoniae Topoisomerase IV ATPase (ParE) (Streptococcus pneumoniae serotype 4, UniProt Q59961)
# Assay: S. pneumoniae Topoisomerase IV ATPase inhibition
# Format: biochemical
# Conditions: values marked * are an average of two or more data points, read-out: % Inh (13 μM) of S. pneumoniae Topoisomerase IV ATPase
# Experimental: S. pneumoniae Topoisomerase IV ATPase Inhibition Activity: Compounds may be tested for inhibition of S. pneumoniae ParE ATPase activity using an ammonium molybdate/malachite green-based phosphate detection assay (Lanzetta, P. A., L. J. Alvarez, P. S. Reinach, and O. A. Candia, 1979, 100: 95-97). Assays are performed in multiwell plates in 30 μl reactions containing: 20 mM Tris buffer pH 8.0, 50 mM ammonium acetate, 8.0 mM magnesium chloride, 0.5 mM ethylenediaminetetraacetic acid, 5% glycerol, 5 mM 1,4-Dithio-DL-threitol, 0.005% Brij-35, 5 μg/ml sheared salmon sperm DNA, 1.25 nM S. pneumoniae ParE, 160 μM ATP, and test compound in dimethylsulfoxide. Reactions are quenched with 30 μl of ammonium molybdate/malachite green detection reagent containing 1.2 mM malachite green hydrochloride, 8.5 mM ammonium molybdate tetrahydrate, and 1 M hydrochloric acid. Plates are read in an absorbance plate reader at 650 nm and percent inhibition values are calculated using dimethylsulfoxide (2%)-containing reactions as 0% inhibition and EDTA-containing ([…]) reactions as 100% inhibition controls. An IC50 measurement of compound potency for each compound can be determined from reactions performed in the presence of 10 different compound concentrations.
# Many of the compounds of the invention were tested in an assay substantially similar to the assays described above for measuring the inhibition of E.coli GyrB ATPase, E. coli Topoisomerase IV ATPase, S. aureus GyrB ATPase, and S. pneumoniae Topoisomerase IV ATPase, and had IC50 values of <200 μM in one or more assays.
# Sequence of S. pneumoniae Topoisomerase IV ATPase (ParE) (Q59961 whole entry): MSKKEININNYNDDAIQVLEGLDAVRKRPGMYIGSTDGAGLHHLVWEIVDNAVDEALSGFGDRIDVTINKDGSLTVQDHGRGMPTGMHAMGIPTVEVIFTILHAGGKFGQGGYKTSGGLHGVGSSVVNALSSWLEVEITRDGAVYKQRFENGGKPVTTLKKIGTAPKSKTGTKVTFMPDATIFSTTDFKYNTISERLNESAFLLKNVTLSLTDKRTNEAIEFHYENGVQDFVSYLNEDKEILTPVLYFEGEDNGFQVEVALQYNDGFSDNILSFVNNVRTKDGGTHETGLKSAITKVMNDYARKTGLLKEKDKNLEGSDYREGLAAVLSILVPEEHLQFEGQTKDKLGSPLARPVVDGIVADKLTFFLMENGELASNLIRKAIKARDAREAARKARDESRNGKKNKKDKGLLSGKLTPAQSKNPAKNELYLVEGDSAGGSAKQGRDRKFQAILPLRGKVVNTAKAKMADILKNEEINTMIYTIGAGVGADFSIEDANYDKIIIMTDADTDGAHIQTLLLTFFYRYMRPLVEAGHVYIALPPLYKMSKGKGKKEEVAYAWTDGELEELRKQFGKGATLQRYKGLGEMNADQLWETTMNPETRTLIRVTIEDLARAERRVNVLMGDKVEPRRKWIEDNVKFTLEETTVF
row,Compound,inhibition at 13 µM [%]
1,"O=C(O)[C@@H]1C[C@H]1c1cccc(-c2cnc(Nc3ccc(F)c(Cl)c3)nc2-n2ccc(C(F)(F)F)n2)c1 (racemic) [Example 574, (1,2-trans)-2-(3-(2-(3-chloro-4-fluorophenylamino)-4-(3-(trifluoromethyl)-1H-pyrazol-1-yl)pyrimidin-5-yl)phenyl)cyclopropanecarboxylic acid]",96
2,"CS(=O)(=O)NCCCNc1nc(Nc2ccc(F)c(Cl)c2)ncc1-c1cncnc1 [Ex 378, N-(3-(2-(3-chloro-4-fluorophenylamino)-5,5′-bipyrimidin-4-ylamino)propyl) methanesulfonamide]",75.2
3,"O=C(O)c1cncc(-c2cnc(Nc3cccc(Cl)c3)nc2-n2ccc(C(F)(F)F)n2)c1 [Ex 745, 5-{2-[(3-chlorophenyl)amino]-4-[3-(trifluoromethyl)-1H-pyrazol-1-yl]pyrimidin-5-yl}pyridine-3-carboxylic acid]",100
4,"COc1ncc(-c2cnc(Nc3ccc(F)c(Cl)c3)nc2NCCCN(C)C)cn1 [Example 1, N^2-(3-chloro-4-fluorophenyl)-N^4-(3-(dimethylamino)propyl)-2′-methoxy-5,5′-bipyrimidine-2,4-diamine]",5.14
5,"COC(=O)c1cccc(-c2cnc(Nc3ccc(F)c(Cl)c3)nc2NCCCN(C)C)c1 [Example 2, methyl 3-(2-(3-chloro-4-fluorophenylamino)-4-(3-(dimethylamino)propylamino)pyrimidin-5-yl)benzoate]",77.8
6,"CN(C)CCCNc1nc(Nc2ccc(F)c(Cl)c2)ncc1-c1cccc(NS(C)(=O)=O)c1 [Example 3, N-(3-(2-(3-chloro-4-fluorophenylamino)-4-(3-(dimethylamino)propylamino)pyrimidin-5-yl)phenyl)methanesulfonamide]",56.8
7,"CN(C)CCCNc1nc(Nc2ccc(F)c(Cl)c2)ncc1-c1ccc2cc[nH]c2c1 [Example 4, N^2-(3-chloro-4-fluorophenyl)-N^4-(3-(dimethylamino)propyl)-5-(1H-indol-6-yl)pyrimidine-2,4-diamine]",93.1
8,"CCOC(=O)c1cncc(-c2cnc(Nc3ccc(F)c(Cl)c3)nc2NCCCN(C)C)c1 [Example 5, ethyl 5-(2-(3-chloro-4-fluorophenylamino)-4-(3-(dimethylamino)propylamino)pyrimidin-5-yl) nicotinate]",104
9,"CCOC(=O)c1ccc(-c2cnc(Nc3ccc(F)c(Cl)c3)nc2NCCCN(C)C)cc1 [Example 6, Ethyl 4-(2-(3-chloro-4-fluorophenylamino)-4-(3-(dimethylamino)propylamino)pyrimidin-5-yl)benzoate]",102
10,"COc1ccc(-c2cnc(Nc3ccc(F)c(Cl)c3)nc2NCCCN(C)C)cc1C(F)(F)F [Example 7, N^2-(3-chloro-4-fluorophenyl)-N^4-(3-(dimethylamino)propyl)-5-(4-methoxy-3(trifluoromethyl)phenyl)pyrimidine-2,4-diamine]",98.7
11,"COc1cc(-c2cnc(Nc3ccc(F)c(Cl)c3)nc2NCCCN(C)C)cc(OC)n1 [Example 8, N^2-(3-chloro-4-fluorophenyl)-5-(2,6-dimethoxypyridin-4-yl)-N^4-(3-(dimethylamino)propyl)-pyrimidin-2,4-diamine]",87.6
12,"CN(C)CCCNc1nc(Nc2ccc(F)c(Cl)c2)ncc1-c1cc2ccccc2o1 [Example 9, 5-(benzofuran-2-yl)-N^2-(3-chloro-4-fluorophenyl)-N^4-(3-(dimethylamino)propyl)pyrimidine-2,4-diamine]",60
13,"COc1cc(-c2cnc(Nc3ccc(F)c(Cl)c3)nc2NCCCN(C)C)cc(OC)c1OC [Example 10, N^2-(3-chloro-4-fluorophenyl)-N^4-(3-(dimethylamino)propyl)-5-(3,4,5-trimethoxyphenyl)pyrimidin-2,4-diamine]",99.3
14,"CN(C)CCCNc1nc(Nc2ccc(F)c(Cl)c2)ncc1-c1cccc(NS(=O)(=O)N(C)C)c1 [Example 11, N′-[3-(2-[(3-chloro-4-fluorophenyl)amino]-4-{[3-(dimethylamino)propyl]amino}pyrimidin-5-yl)phenyl]-N,N-dimethylsulfonamide]",18.2
15,"CC(=O)c1ccc(-c2cnc(Nc3ccc(F)c(Cl)c3)nc2NCCCN(C)C)s1 [Example 12, 1-{5-[2-(3-chloro-4-fluorophenylamino)-4-[3-(dimethylamino)propylamino)pyrimidin-5-yl]thiophen-2-yl}ethanone]",108
16,"CN(C)CCCNc1nc(Nc2ccc(F)c(Cl)c2)ncc1-c1ccc(F)c(C#N)c1 [Example 13, 5-{2-(3-chloro-4-fluorophenylamino)-4-[3-(dimethylamino)propylamino]pyrimidin-5-yl}-2-fluorobenzonitrile]",102

row,Compound,inhibition at 13 µM [%]
1,"CN(C)CCCNc1nc(Nc2ccc(F)c(Cl)c2)ncc1-c1cccc([N+](=O)[O-])c1 [Example 14, N^2-(3-chloro-4-fluorophenyl)-N^4-[3-(dimethylamino)propyl]-5-(3-nitrophenyl) pyrimidin-2,4-diamine]",100
2,"CN(C)CCCNc1nc(Nc2ccc(F)c(Cl)c2)ncc1-c1cncc(C#N)c1 [Example 15, 5-{2-(3-chloro-4-fluorophenylamino)-4-[3-(dimethylamino)propylamino]pyrimidin-5-yl}nicotinitrile]",100
3,"CN(C)CCCNc1nc(Nc2ccc(F)c(Cl)c2)ncc1-c1cn([Si](C)(C)C(C)(C)C)c2ccccc12 [Example 16, 5-[1-(tert-butyldimethylsilyl)-1H-indol-3-yl]-N^2-(3-chloro-4-fluorophenyl)-N^4-[3-(dimethylamino)propyl] pyrimidin-2,4-diamine]",55.3
4,"CN(C)CCCNc1nc(Nc2ccc(F)c(Cl)c2)ncc1-c1ccc(C(=O)O)s1 [Example 17, 5-{2-(3-chloro-4-fluorophenylamino)-4-[3-(dimethylamino)propylamino]pyrimidin-5-yl}thiophene-2-carboxylic acid]",54.8
5,"COc1ccc(-c2cnc(Nc3ccc(F)c(Cl)c3)nc2NCCCN(C)C)cn1 [Example 18, N^2-(3-chloro-4-fluorophenyl)-N^4-[3-(dimethylamino)propyl]-5-(6-methoxy-pyridin-3-yl)pyrimidin-2,4-diamine]",96.6
6,"CN(C)CCCNc1nc(Nc2ccc(F)c(Cl)c2)ncc1-c1cnc(N)nc1 [Example 19, N^2-(3-chloro-4-fluorophenyl)-N^4-[3-(dimethylamino)propyl]-5,5′-bipyrimidin-2,2′,4-triamine]",95.8
7,"CN(C)CCCNc1nc(Nc2ccc(F)c(Cl)c2)ncc1-c1cn[nH]c1 [Example 20, N^2-(3-chloro-4-fluorophenyl)-N^4-[3-(dimethylamino)propyl]-5-(1H-pyrazol-4-yl)pyrimidine-2,4-diamine]",74.6
8,"CN(C)CCCNc1nc(Nc2ccc(F)c(Cl)c2)ncc1-c1ccc(N)nc1 [Example 21, 5-(6-aminopyridin-3-yl)-N^2-(3-chloro-4-fluorophenyl)-N^4-[3-(dimethylamino)propyl]pyrimidine-2,4-diamine]",71.7
9,"COC(=O)c1cc2cc(-c3cnc(Nc4ccc(F)c(Cl)c4)nc3NCCCN(C)C)ccc2s1 [Example 22, Methyl 5-{2-(3-chloro-4-fluorophenylamino)-4-[3-(dimethylamino)propylamino]pyrimidin-5-yl}benzo[b]thiophene-2-carboxylate]",85.3
10,"CN(C)CCCNc1nc(Nc2ccc(F)c(Cl)c2)ncc1-c1cccnc1 [Example 23, N^2-(3-chloro-4-fluorophenyl)-N^4-[3-(dimethylamino)propyl]-5-pyridin-3-ylpyrimidin-2,4-diamine]",95.8
11,"CN(C)CCCNc1nc(Nc2ccc(F)c(Cl)c2)ncc1-c1ccc(/C=C/C(=O)O)cc1 [Example 24, (2E)-3-[4-(2-[(3-chloro-4-fluorophenyl)amino]-4-{[3-(dimethylamino)propyl]-amino}pyrimidin-5-yl)phenyl]prop-2-enoic acid]",98.1
12,"COc1ccc(-c2cnc(Nc3ccc(F)c(Cl)c3)nc2NCCCN(C)C)cc1 [Example 25, N^2-(3-chloro-4-fluorophenyl)-N^4-[3-(dimethylamino)propyl]-5-(4-methoxyphenyl)-pyrimidine-2,4-diamine]",90.5
13,"COc1cccc(-c2cnc(Nc3ccc(F)c(Cl)c3)nc2NCCCN(C)C)c1 [Example 26, N^2-(3-chloro-4-fluorophenyl)-N^4-[3-(dimethylamino)propyl]-5-(3-methoxyphenyl)-pyrimidine-2,4-diamine]",91.7
14,"CN(C)CCCNc1nc(Nc2ccc(F)c(Cl)c2)ncc1-c1ccc(CCC(=O)O)cc1 [Example 27, 3-[4-(2-[(3-chloro-4-fluorophenyl)amino]-4-{[3-(dimethylamino)propyl]-amino}pyrimidin-5-yl)phenyl]propanoic acid]",89.2
15,"COc1ccccc1-c1cnc(Nc2ccc(F)c(Cl)c2)nc1NCCCN(C)C [Example 28, N^2-(3-chloro-4-fluorophenyl)-N^4-[3-(dimethylamino)propyl]-5-(2-methoxyphenyl)-pyrimidin-2,4-diamine]",62.6
